{"source": "paper PMC12406195", "about": "“Understanding the Modes of Action of β‑Ketoiminato Iridium(III) Complexes in Cancer Cells” (Inorganic Chemistry, 2025)", "key": {"MDA-MB-231 cells [1]": {"test_system": "MDA-MB-231 cells", "experiment": "Nuclei morphology assay (DAPI)", "type": "cell-based, human", "conditions": "MDA-MB-231, 48 h", "text": "The potential of compound 1 to trigger apoptosis in breast cancer cells was then studied. […] High-magnification insets (1–6) illustrate representative nuclear morphologies captured in the assay. Condensed, hyperintense nuclei with reduced area (e.g., images 1, 2 and 3), irregular nuclear blebs with discontinuous chromatin (e.g., images 3 and 4), and fragmented chromatin consistent with apoptotic bodies (e.g., images 5 and 6).\n7 Microscopic visualization of nuclear morphology changes in MDA-MB-231 breast cancer cells after 48 h exposure to compound 1 or CDDP. […] Images were acquired using a Leica DMI8 fluorescence microscope at 40× magnification. […]\n(§1) MDA-MB-231 cells at 4000 cells/well were seeded into a black clear -bottom 96-well plate using phenol-red free complete RMPI medium, and incubated for 48 h. […] Fluorescence images were obtained using a Zeiss Observer 7 inverted microscope at excitation at 488 nm and emission at 509 […]\n(§2) Plasmid DNA (200 ng, pBOS -H2B-GFP, BD Biosciences) was incubated overnight at room temperature with 1 or CDDP at concentrations between 100 and 400 μM in double -distilled H2O (20 μL total volume). […] The experiment was conducted in two biological replicates, and the band intensities were quantified and analyzed using ImageJ software. […]"}, "MDA-MB-231 cells [2]": {"test_system": "MDA-MB-231 cells", "experiment": "Reactive oxygen species (H2DCFDA fluorescence)", "type": "cell-based, human", "conditions": "MDA-MB-231, 100 μM, 4 h, compared to nontreated control", "protocol": "To measure the degree of ROS produced in MDA-MB-231 cells, 2′,7′-dichlorodihydrofluorescein diacetate (H2DCFDA), a cell-permeable fluorescent dye, was used. H2DCFDA is deacetylated by esterases and consecutively oxidized by intracellular ROS into a fluorescent molecule, dichlorofluorescein (DCF).\n(§3) MDA-MB-231 cells at 4000 cells/well were seeded into a black clear -bottom 96-well plate using phenol-red free complete RMPI medium, and incubated for 48 h. The cells were treated with 100 µM of 1 for 4 h alongside an untreated sample (control). 2′,7′ -dichlorodihydrofluorescein diacetate (H 2DCFDA, 20 μM final concentration in PBS ) was added for 45 min. […] Fluorescence images were obtained using a Zeiss Observer 7 inverted microscope at excitation at 488 nm and emission at 509 […]\nas §2\n(§4) MDA-MB-231 cells were seeded in 6-well plates at a density of 1.2 × 10⁵ cells/well. […] The samples were then placed on microscope slides, covered with a coverslip, and their morphology was examined using a fluorescence microscope (Eclipse TS100, Nikon). […]"}, "MDA-MB-231 cells [3]": {"test_system": "MDA-MB-231 cells", "experiment": "Acridine orange/ethidium bromide (AO/EB) staining", "type": "cell-based, human", "conditions": "MDA-MB-231, 48 h", "protocol": "To investigate how the drugs impacted cell viability, acridine orange (AO)/ethidium bromide (EtBr) staining was employed to identify the MDA-MB-231 cells' mode of death in response to compound 1 or CDDP, with AO marking early apoptotic cells in green and EtBr marking late apoptotic or necrotic cells in red. […] This effect was more pronounced than with CDDP, indicating its higher efficacy.\nas §3, with “(control).” for “(control). 2′,7′ -dichlorodihydrofluorescein diacetate (H 2DCFDA, 20 μM final concentration in PBS ) was added for 45 min.”\nas §2, §4"}, "plasmid DNA": {"test_system": "plasmid DNA", "experiment": "Plasmid DNA interaction, agarose gel electrophoresis", "type": "biochemical", "conditions": "200 ng plasmid DNA, 100–400 μM, cell-free", "protocol": "The ability of compounds to intercalate, nick, or cleave DNA can be evaluated using gel electrophoresis with plasmid DNA. In this study, in vitro plasmid DNA assays were performed by incubating 200 ng of plasmid DNA with different concentrations (100–400 μM) of 1 or CDDP, which served as a positive control. The DNA fragments were then separated via agarose gel electrophoresis, and potential changes in DNA migration patterns were analyzed.\n5 Plasmid DNA (200 ng) was incubated with varying concentrations (100, 200, and 400 μM) of compound 1 or CDDP for 24 h at room temperature. The DNA was then separated via agarose gel electrophoresis, and the intensity of supercoiled and nicked circular DNA bands was quantified and expressed as mean ± SEM (n = 4).\nas §1, §2"}}}
{"substance": "[Cp*Ir(C16H14NO)(PTA)](PF6) [Compound 1]", "values": [{"measurement": "Nuclear morphology", "setting": "MDA-MB-231 cells [1]", "value": "typical apoptotic features like DNA fragmentation and condensation"}, {"measurement": "ROS generation (DCF fluorescence)", "setting": "MDA-MB-231 cells [2]", "value": "increase in fluorescence"}, {"measurement": "AO/EtBr staining (mode of cell death)", "setting": "MDA-MB-231 cells [3]", "value": "increased staining for both dyes"}, {"measurement": "Plasmid DNA migration", "setting": "plasmid DNA", "value": "did not induce any apparent shift"}]}
